From patent US5858702A, “Isolation, cloning and expression of transmembrane water channel Aquaporin 5 (AQP5)” (The Johns Hopkins University, priority 1995, dated 1999)

What was measured:
[1] = Stopped-flow water flux (Pf) in control liposomes, effect of mercurial reagents; type: biochemical; conditions: 1 mM mercurial
Description: (§1) Purified AQP1 was stored overnight at 0° C. or frozen for several days at -80° C. prior to reconstitution. Reconstitution into proteoliposomes was carried out in a final volume of 1 ml containing 60-90 μg of purified AQP 1 protein in chromatography buffer, 9 mg of bath-sonicated E. coli phospholipid, 1.25% (w/v) octyl glucoside, and 50 mM Tris-HCl (pH 7.5). The mixture was briefly blended on a vortex mixer and incubated for 20 minutes on ice. […] Protein and phospholipid were measured as described by Ambudkar & Maloney (J. Biol. Chem., 1986, 261:10079-10086).
Permeability measurements. Membrane permeability measurements (Pf) were measured by exposing AQP1 proteoliposomes or control liposomes to an osmotic gradient by rapid mixing with an equal volume of another solution containing buffer A plus sufficient sucrose to increase osmolality in the mixed solutions to a value 120% of that in the original solution. This was performed with a stopped-flow fluorometer (SF.17MV, Applied Photophysics, Leatherhead, U.K.) with a measured dead time of 0.7 ms. […] Extravesicular carboxyfluorescein fluorescence was completely quenched using anti-fluorescein antibody (Harris et al., 1990, Am. J. Physiol. 259:F366-F371). […]

CHIP28 = target: T1, CHIP28 (Homo sapiens, UniProt P29972); assay: Stopped-flow water flux (Pf) in CHIP28 proteoliposomes, effect of mercurial reagents; type: biochemical; conditions: 1 mM
T1 construct: was comprised of AQP1 (the 28-kDa protein itself and the 35-60-kDa glycosylated protein); from tissue; host or cells: human erythrocytes (blood-bank units; small-scale purifications from freshly drawn whole blood)
T1 sequence (P29972 2-269 limits assumed): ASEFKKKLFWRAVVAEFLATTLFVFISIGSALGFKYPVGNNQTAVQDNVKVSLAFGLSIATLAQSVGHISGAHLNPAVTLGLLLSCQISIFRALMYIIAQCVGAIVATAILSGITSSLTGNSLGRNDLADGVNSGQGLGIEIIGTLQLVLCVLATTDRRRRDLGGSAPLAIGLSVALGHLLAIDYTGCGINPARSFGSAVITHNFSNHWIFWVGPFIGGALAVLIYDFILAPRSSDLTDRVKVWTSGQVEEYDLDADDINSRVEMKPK
Description: Purified AQP1 was stored overnight at 0° C. or frozen for several days at -80° C. prior to reconstitution. Reconstitution into proteoliposomes was carried out in a final volume of 1 ml containing 60-90 μg of purified AQP 1 protein in chromatography buffer, 9 mg of bath-sonicated E. coli phospholipid, 1.25% (w/v) octyl glucoside, and 50 mM Tris-HCl (pH 7.5). The mixture was briefly blended on a vortex mixer and incubated for 20 minutes on ice. Proteoliposomes (or liposomes prepared without protein) were formed at room temperature by rapidly injecting the mixture into 25 ml of buffer A [50 mM MOPS, pH 7.5, 150 mM N-methyl-D-glucamine (NMDG) chloride also containing 10-15 mM carboxyfluorescein, 1 mM dithiothreitol, and 0.5 mM PMSF]. For the measurement of proton permeability, proteoliposomes and liposomes were loaded with buffer B (5 mM MOPS, pH 7.5, 150 mM KCl, 0.5 mM carboxyfluorescein, 1 mM dithiothreitol, and 0.5 mM PMSF). The suspension was incubated for 20 minutes at room temperature. Proteoliposomes or liposomes were collected by centrifugation for 1 hour at 123000×g in a Beckman Type 42.1 rotor at 4° C. The pellet was resuspended in 8 ml of buffer A or B and then centrifuged for 1 hour at 152000×g in a Beckman Type 50 Ti rotor. Proteoliposomes or liposomes were resuspended in 300 μl of buffer A or B and stored at 4° C. for 16-24 hours. Typically 50% (54±6%, n=5) of the AQP1 protein and 70% of the phospholipid were recovered in proteoliposomes. The lipid to protein ratio was in the range of 120:1 to 219:1. These proteoliposomes have internal volumes of 1 μl/mg of phospholipid (Ambudkar and Maloney, 1986, J. Biol. Chem. 261:10079-10086). Protein and phospholipid were measured as described by Ambudkar & Maloney (J. Biol. Chem., 1986, 261:10079-10086).
Permeability measurements. Membrane permeability measurements (Pf) were measured by exposing AQP1 proteoliposomes or control liposomes to an osmotic gradient by rapid mixing with an equal volume of another solution containing buffer A plus sufficient sucrose to increase osmolality in the mixed solutions to a value 120% of that in the original solution. This was performed with a stopped-flow fluorometer (SF.17MV, Applied Photophysics, Leatherhead, U.K.) with a measured dead time of 0.7 ms. The excitation wavelength was set at 490±1.5 nm using a 150-W mercury-xenon arc lamp and monochromator (.function.3.4 grating monochromator, both from Applied Photophysics); the emission wavelength was >515 nm using a cut-on filter (Oriel Corp., Stratford, Conn.). Extravesicular carboxyfluorescein fluorescence was completely quenched using anti-fluorescein antibody (Harris et al., 1990, Am. J. Physiol. 259:F366-F371).
Within the range of osmolalities used in these experiments, the vesicles acted as perfect osmometers, and relative volume (absolute volume divided by initial volume) was linearly related to relative fluorescence (absolute fluorescence divided by initial fluorescence). The data obtained from 8 to 16 determinations was averaged and fit to single-exponential curves using 5 software provided by Applied Photophysics (Zeidel et al., 1992, Biochemistry 31:589-596). The fitting parameters were then used to determine Pf by first applying the linear conversion from relative fluorescence to relative volume and then iteratively solving the water permeability equation using MathCAD software (MathSoft, Cambridge, Mass.):
dV(t)/dt=(Pf)(SAV)(MVW)[(Cin /V(t))-Cout ] (1)
where V(t) is relative intravesicular volume as a function of time, Pf is osmotic water permeability in centimeters per second, SAV is the vesicle surface area to volume ratio, MVW is the molar volume of water (18 cm^3 /mol), and Cin and Cout are the initial concentrations of total solute inside and outside the vesicle, respectively (Zeidel et al., 1992, Biochemistry 31:589-596).
Effect of mercural reagents.

[2] = Proton permeability (PH+) of CHIP28 proteoliposomes; type: biochemical; conditions: 1 μM gramicidin A added to vesicles
Description: as §1, with “ice. Proteoliposomes (or liposomes prepared without protein) were formed at room temperature by rapidly injecting the mixture into 25 ml of buffer A [50 mM MOPS, pH 7.5, 150 mM N-methyl-D-glucamine (NMDG) chloride also containing 10-15 mM carboxyfluorescein, 1 mM dithiothreitol, and 0.5 mM PMSF].” for “ice.”
Exclusion of protons. […] Proton permeability was measured in CHIP28-containing liposomes containing 150 mM KCl and 5 mM MOPS, incorporating 1 μM valinomycin to prevent accumulation of protons from generating a positive intravesicular voltage. […] Over the pH range employed, fluorescence was linearly related to pH; extravesicular fluorescence was quenched with anti-fluorescein antibody. To ensure that increases in PH+ caused by CHIP28 could have been detected, 1 μM gramicidin A was added and increased PH+ by over 50-fold in each experiment.

human RBC = conditions: cited from earlier work
Xenopus oocytes = assay: Two electrode voltage clamp of AQP5-expressing oocytes; type: cell-based; conditions: electrophysiological studies, not shown
Description: Functional expression in Oocytes--A 1-kb BamHI fragment containing the 5' untranslated sequence and the entire open reading frame of the salivary cDNA was blunt-end-ligated into the BglII site of the Xenopus expression construct pXβG, which contains the HindIII-Pst insert of pSP64T in pBS II KS (Preston et al., 1992, Science, 256:385-387). Capped cRNA was synthesized in vitro after digestion with Xbal (Preston et al., 1993). Defolliculated stage V-VI Xenopus oocytes were injected with 50 nl of water or up to 5 ng of sample cRNAs and incubated for 3 days at 18° C. in 200 mosM modified Barth's buffer. The oocytes were transferred to 70 mosM modified Barth's buffer at 21° C.; oocyte swelling was monitored by videomicroscopy, and the coefficient of osmotic water permeability (Pf) was determined (Preston et al., 1992, 1993). Uptake of [^14 C]urea or [^14 C]glycerol was measured by incubating oocytes in 200 mosM Barth's buffer for 10-20 min at 21° C. followed by washing and SDS solubilization. No increase in ion conductance was found when control oocytes were compared to RNA-injected oocytes by two electrode voltage clamps (Preston et al, 1992).

In the case of `O=S(=O)([O-])c1cc[c]([Hg][Cl])cc1` [pCMBS, p-chloromercuribenzene sulfonate], the “effect on the Pf of control liposomes” value [1] is reported as “Neither pCMBS nor HgCl2 had any effect”, the “inhibition of Pf at 5 and 10 minutes” value (CHIP28; 37° C.) is reported as “partial” and the “time to complete inhibition of Pf” value (CHIP28; 37° C.) is reported as 20 to 30 min. For the same molecule, the “Pf in CHIP28 proteoliposomes after mercurial” value (CHIP28; 37° C. (FIG. 12: pCMBS 25 minutes, HgCl2 3 minutes)) was 0.009±0.005 cm/s.

In the case of gramicidin A, the “increase of PH+” value [2] is reported as “over 50 fold”.

For `O=C(CCc1ccc(O)cc1)c1c(O)cc(O)cc1O` [Phloretin], the “urea flux in human RBC” value (human RBC) is listed as “inhibits urea flux” and the “water flux in human RBC” value (human RBC) is listed as “without altering water flux”.

B1: AQP5: 265-residue rat salivary water channel protein, 5th mammalian Aquaporin (protein, UniProt P47864 1-265, looked up)
Aquaporin-5: MKKEVCSLAFFKAVFAEFLATLIFVFFGLGSALKWPSALPTILQISIAFGLAIGTLAQALGPVSGGHINPAITLALLIGNQISLLRAVFYVAAQLVGAIAGAGILYWLAPLNARGNLAVNALNNNTTPGKAMVVELILTFQLALCIFSSTDSRRTSPVGSPALSIGLSVTLGHLVGIYFTGCSMNPARSFGPAVVMNRFSPSHWVFWVGPIVGAMLAAILYFYLLFPSSLSLHDRVAVVKGTYEPEEDWEDHREERKKTIELTAH
With B1 the membrane conductance (Xenopus oocytes) was “failed to reveal increased membrane conductance”.
